{"source": "patent US9931428B2", "about": "“Ophthalmic compositions” (priority 2011, dated 2018)", "assay_in_all_cases": "BS EN1276 quantitative suspension test, bactericidal activity, dirty conditions", "assay_type_in_all_cases": "cell-based", "settings_in_all_cases": "aqueous solution of test article; EN 1276 dirty conditions", "key": {"[1]": {"tested_on": "Staphylococcus aureus NCTC 6571"}, "[2]": {"tested_on": "Pseudomonas aeruginosa ATCC 15442"}, "Bacillus subtillus 10262": {"tested_on": "Bacillus subtillus 10262"}, "Escherichia coli 11867": {"tested_on": "Escherichia coli 11867"}}, "data": [{"smiles": "O=C(O)CC(O)(CC(=O)O)C(=O)O", "note": "[Citric acid, citric acid]", "values": [{"measurement": "Microbial reduction", "setting": "[1]", "value": "3.02 × 10^2"}, {"measurement": "Microbial reduction", "setting": "[2]", "value": "2.69 × 10^3"}, {"measurement": "Microbial reduction", "setting": "Bacillus subtillus 10262", "value": "2.29 × 10^3"}, {"measurement": "Microbial reduction", "setting": "Escherichia coli 11867", "value": "6.46 × 10^2"}]}]}
